Reference: US5190957A, “Treatment of multi-drug resistant tumors with quinolyl-and isoquinolyloxazole-2-ones” (Merrell Dow Pharmaceuticals Inc., priority 1992, dated 1993)
Read-outs that look alike come from different tables or passages of the source.

What was measured:
[1] = tested on: multidrug-resistant tumors; conditions: reported previously; cited from earlier work
[2] = tested on: CHO^R cells (vinblastine (VBL) resistant tumor cell line); assay: Reversal of multidrug resistance (MDR) in CHO^R cells: cell growth with test compound with or without vinblastine (VLB); type: cell-based; conditions: 72 hr
Experimental: CHO^R cells were plated at a density of 1X105/35mm dish and were allowed to grow overight at 37° C. in a CO2 incubator. The medium was replaced with medium containing the compounds and vinblastine (0.2 μg/ml). The cells were allowed to grow for further 72 hr and the cell number was determined by Coulter counter after trypsiunization.

Compound: COC(=O)[C@H]1[C@H]2C[C@@H]3c4[nH]c5cc(OC)ccc5c4CCN3C[C@H]2C[C@@H](OC(=O)c2cc(OC)c(OC)c(OC)c2)[C@@H]1OC [reserpine]
- reversal of drug resistance in multidrug-resistant tumors [1]: reverse drug resistance

Compound: CCCc1[nH]c(=O)oc1-c1ccnc2ccccc12 [4-PROPYL-5-(4-QUINOLINYL)-2(3H)-OXAZOLONE]
- inhibition at 0.1 µg/mL ([2]; 0.1 μg/ml compound + vinblastine 0.2 μg/ml, read-out: % Inhibition of Cell Growth, Compound + VLB): 4%
- inhibition at 0.1 µg/mL ([2]; 0.1 μg/ml compound, no VLB, read-out: % Inhibition of Cell Growth, Compound Only): 0%
- inhibition at 1 µg/mL ([2]; 1 μg/ml compound + vinblastine 0.2 μg/ml, read-out: % Inhibition of Cell Growth, Compound + VLB): 43%
- inhibition at 1 µg/mL ([2]; 1 μg/ml compound, no VLB, read-out: % Inhibition of Cell Growth, Compound Only): 0%
- inhibition at 5 µg/mL ([2]; 5 μg/ml compound + vinblastine 0.2 μg/ml, read-out: % Inhibition of Cell Growth, Compound + VLB): 93%
- inhibition at 5 µg/mL ([2]; 5 μg/ml compound, no VLB, read-out: % Inhibition of Cell Growth, Compound Only): 0%
- inhibition at 10 µg/mL ([2]; 10 μg/ml compound + vinblastine 0.2 μg/ml, read-out: % Inhibition of Cell Growth, Compound + VLB): 93%
- inhibition at 10 µg/mL ([2]; 10 μg/ml compound, no VLB, read-out: % Inhibition of Cell Growth, Compound Only): 14%

Compound: COc1ccc([C@@H]2Sc3ccccc3N(CCN(C)C)C(=O)[C@@H]2OC(C)=O)cc1 [diltiazem]
- reversal of drug resistance in multidrug-resistant tumors [1]: reverse drug resistance

Compound: CC[C@]1(O)C[C@@H]2CN(CCc3c([nH]c4ccccc34)[C@@](C(=O)OC)(c3cc4c(cc3OC)N(C)[C@H]3[C@@](O)(C(=O)OC)[C@H](OC(C)=O)[C@]5(CC)C=CCN6CC[C@]43[C@@H]65)C2)C1 [VLB, vinblastine, reference compound]
- effect on cell growth of VLB alone ([2]; VLB alone, 0.2 μg/ml): did not have any effect on cell growth

Compound: C=C[C@H]1C[N@@]2CC[C@H]1C[C@@H]2[C@@H](O)c1ccnc2ccc(OC)cc12 [Quinidine]
- reversal of drug resistance in multidrug-resistant tumors [1]: reverse drug resistance

Compound: COc1ccc(CCN(C)CCCC(C#N)(c2ccc(OC)c(OC)c2)C(C)C)cc1OC (stereo not shown) [verapamil]
- reversal of drug resistance in multidrug-resistant tumors [1]: reverse drug resistance
